Test results from patent publication US20260184708A1, “PYRIDAZINONES AND METHODS OF USE THEREOF” (GFB (ABC), LLC, priority 2017, published 2026).
Read-outs that look alike come from different tables or passages of the source.

Molecular target: T1, TRPC5 (Homo sapiens, UniProt Q9UL62)
T1 construct: expressed in transfected cells; host or cells: HEK 293
T1 sequence (Q9UL62 1-973): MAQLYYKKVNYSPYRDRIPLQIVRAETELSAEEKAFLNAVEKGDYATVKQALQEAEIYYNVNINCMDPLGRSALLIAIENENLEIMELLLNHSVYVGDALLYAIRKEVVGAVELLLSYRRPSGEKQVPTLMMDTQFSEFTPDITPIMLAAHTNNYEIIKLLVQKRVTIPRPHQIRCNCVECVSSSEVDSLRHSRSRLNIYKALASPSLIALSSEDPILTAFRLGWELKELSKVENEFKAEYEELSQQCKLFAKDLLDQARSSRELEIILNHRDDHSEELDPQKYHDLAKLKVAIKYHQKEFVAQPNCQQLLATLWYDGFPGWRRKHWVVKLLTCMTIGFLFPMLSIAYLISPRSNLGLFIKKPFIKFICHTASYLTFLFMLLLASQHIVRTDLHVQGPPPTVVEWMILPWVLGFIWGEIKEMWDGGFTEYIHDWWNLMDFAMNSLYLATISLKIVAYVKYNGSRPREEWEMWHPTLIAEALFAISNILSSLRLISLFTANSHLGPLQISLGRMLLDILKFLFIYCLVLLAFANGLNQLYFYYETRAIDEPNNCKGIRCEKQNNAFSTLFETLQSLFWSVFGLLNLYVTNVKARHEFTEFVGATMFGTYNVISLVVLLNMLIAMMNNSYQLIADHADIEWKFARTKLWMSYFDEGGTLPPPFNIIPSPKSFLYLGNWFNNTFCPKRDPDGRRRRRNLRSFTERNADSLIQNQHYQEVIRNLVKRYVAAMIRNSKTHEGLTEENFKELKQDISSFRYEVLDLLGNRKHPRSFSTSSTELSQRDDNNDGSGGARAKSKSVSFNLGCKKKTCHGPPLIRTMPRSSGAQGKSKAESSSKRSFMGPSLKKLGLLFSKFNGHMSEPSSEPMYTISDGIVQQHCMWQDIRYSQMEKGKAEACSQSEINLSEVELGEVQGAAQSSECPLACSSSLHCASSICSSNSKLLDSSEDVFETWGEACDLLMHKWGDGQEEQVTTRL
Test: TRPC5 automated patch clamp assay (Qpatch), current block after rosiglitazone stimulation
Assay type: cell-based
Conditions: HEK293 cells overexpressing TRPC5, rosiglitazone stimulation
Protocol: HEK 293 cells expressing human TRPC5 were harvested, re-suspended in serum free medium, and added to the automated platform and used within 2-3 hours. Internal and external physiological solutions were freshly prepared prior to the assay. The external solution contained: 145 mM NaCl, 4 mM KCl, 2 mM CaCl2), 1 mM MgCl2, 10 mM HEPES, 10 mM glucose, pH 7.4 with NaOH and 300 mOsm/L. The internal solution contained 120 mM L-aspartic acid, 120 mM CsOH·H2O, 20 mM CsCl, 2 mM MgCl2, 8.8 mM CaCl2), 10 mM EGTA, 10 mM HEPES, 10 mM Glucose, 0.1 mM GTP and 2 mM Na2ATP; pH 7.2 with CsOH and 290 mOsm/L. The free internal Ca2+ concentration was buffered to 1 μM.
The automated electrophysiological platform QPatch 16 from Sophion (Denmark) was used to carry out the compounds profiling. The series resistance and quality of seals were continuously monitored during the experiments. Data was analyzed using Sophion QPatch assay software 5.6 (Odense). IC50 values were calculated using a least squares regression algorithm (Hill equation).
To monitor the ion currents, a voltage ramp from −100 mV to +100 mV, over 300 ms, was applied every 10 seconds, from a holding potential of −60 mV.
After recording for a minimum of 60 seconds control period, Rosiglitazone (30 uM), was applied to activate the channel.

[1] = 80 mV, read-out: TRPC5_QP XC50_80
[2] = 100 mV, read-out: TRPC5_QP XC50_100
[3] = Table 4, 80 mV, read-out: TRPC5_QP_ XC50_80
[4] = Table 4, 100 mV, read-out: TRPC5_QP_ XC50_100
[5] = Table 5, 80 mV, read-out: TRPC5_QP_ XC50_80
[6] = Table 5, 100 mV, read-out: TRPC5_QP_ XC50_100
[7] = Table 3, 80 mV, read-out: TRPC5_QP_ XC50_80
[8] = Table 3, 100 mV, read-out: TRPC5_QP_ XC50_100

Row | Compound | IC50 [3] [µM] | IC50 [4] [µM] | IC50 [7] [µM] | IC50 [8] [µM] | also measured
1 | NC(=O)CN1CCN(c2cn[nH]c(=O)c2Br)CC1 | – | – | – | – | IC50 [1]: 10 to 500 µM; IC50 [2]: 10 to 500 µM
2 | C=C(C)c1c(N2CCN(Cc3ccccc3C)C(=O)C2)cn[nH]c1=O | 10 to 500 | 10 to 500 | – | – | –
3 | O=C1CN(c2cn[nH]c(=O)c2Cl)CCN1Cc1cccnc1Cl | – | – | – | – | IC50 [5]: 10 to 500 µM; IC50 [6]: 10 to 500 µM
4 | COc1ccc(CN2CCN(c3cn[nH]c(=O)c3Cl)CC2=O)cc1 | – | – | – | – | IC50 [5]: 5 to 10 µM; IC50 [6]: 5 to 10 µM
5 | O=c1[nH]ncc(N2CCN(S(=O)(=O)c3ccccc3)CC2)c1Br | – | – | – | – | IC50 [1]: 10 to 500 µM; IC50 [2]: 10 to 500 µM
6 | Cc1ccccc1CN1CCN(c2cn[nH]c(=O)c2Br)C(C)C1 (stereo not drawn) [drawing 650] | – | – | 10 to 500 | 10 to 500 | –
7 | Cc1ccccc1CN1CCN(c2cn[nH]c(=O)c2CC(C)C)CC1=O | 10 to 500 | 10 to 500 | – | – | –
8 | Cc1ccccc1CN1CCN(c2cn[nH]c(=O)c2Br)CC1 | – | – | – | – | IC50 [1]: 1 to 5 µM; IC50 [2]: 1 to 5 µM
9 | O=C1CN(c2cn[nH]c(=O)c2Cl)CCN1Cc1ccccc1OC(F)(F)F [drawing 689] | – | – | 1e-05 to 1 | 1e-05 to 1 | –
10 | Cc1ccccc1C(C)N1CCN(c2cn[nH]c(=O)c2Cl)CC1=O (stereo not drawn) | 1e-05 to 1 | 1e-05 to 1 | – | – | –
11 | O=c1[nH]ncc(N2CCN(Cc3ccc(F)cc3C(F)(F)F)CC2)c1Cl | – | – | – | – | IC50 [5]: 1 to 5 µM; IC50 [6]: 1 to 5 µM
12 | CCN(CC)C(=O)CN1CCN(c2cn[nH]c(=O)c2Cl)CC1=O | 10 to 500 | 10 to 500 | – | – | –
13 | Cc1cc(F)ccc1CN1CCN(c2cn[nH]c(=O)c2Cl)C(C)C1 (stereo not drawn) | 1 to 5 | 1 to 5 | – | – | –
14 | Cc1ccccc1CN1CC2(C1)CN(c1cn[nH]c(=O)c1Br)C2 | – | – | 10 to 500 | 10 to 500 | –
15 | CC(C)(C)CN1CCN(c2cn[nH]c(=O)c2Br)CC1 | – | – | 10 to 500 | 10 to 500 | –
16 | Cc1cc(F)ccc1CN1CCN(c2cc(=O)[nH][nH]c2=O)CC1 | 10 to 500 | 10 to 500 | – | – | –
17 | O=C1CN(c2cn[nH]c(=O)c2Cl)CCN1Cc1ccc(F)cc1C(F)(F)F | – | – | – | – | IC50 [5]: 1e-05 to 1 µM; IC50 [6]: 1e-05 to 1 µM
18 | Cc1cccc(C)c1CN1CCN(c2cn[nH]c(=O)c2Br)CC1 | – | – | – | – | IC50 [1]: 1 to 5 µM; IC50 [2]: 1 to 5 µM
19 | Cc1cccnc1CN1CCN(c2cn[nH]c(=O)c2Cl)CC1 | 5 to 10 | 5 to 10 | – | – | –
20 | Cc1ccccc1CN1CCN(c2cn[nH]c(=O)c2Oc2ccccc2)CC1=O | 10 to 500 | 10 to 500 | – | – | –
21 | Cc1cc(F)ccc1CN1CCN(c2cc(=O)[nH]nc2C)CC1=O | – | – | – | – | IC50 [5]: 10 to 500 µM; IC50 [6]: 10 to 500 µM
22 | COc1cc(C(F)(F)F)ccc1CN1CCN(c2cn[nH]c(=O)c2Cl)CC1=O | – | – | – | – | IC50 [5]: 1 to 5 µM; IC50 [6]: 5 to 10 µM
23 | Cc1ccc(CN2CCN(c3cn[nH]c(=O)c3Cl)CC2=O)cc1 | – | – | – | – | IC50 [5]: 5 to 10 µM; IC50 [6]: 5 to 10 µM
24 | Cc1cc(F)ccc1CN1CCN(c2cn[nH]c(=O)c2Br)CC1 | – | – | 1 to 5 | 1 to 5 | –
25 | O=C1CN(c2cn[nH]c(=O)c2Br)CCN1CC1CCCCC1 | – | – | 1 to 5 | 1 to 5 | –
26 | Cc1cc(F)ccc1CN1CCN(c2cn[nH]c(=O)c2Cl)CC1 [drawing 679] | – | – | 1 to 5 | 1 to 5 | –
27 | O=c1[nH]ncc(N2CCN(Cc3ccccc3OC(F)(F)F)CC2)c1Br | – | – | 1 to 5 | 1 to 5 | –
28 | CCc1c(N2CCN(Cc3ccccc3C)C(=O)C2)cn[nH]c1=O | 5 to 10 | 5 to 10 | – | – | –
29 | O=C1CN(c2cn[nH]c(=O)c2Cl)CCN1Cc1ccc(C(F)(F)F)cc1 | 1e-05 to 1 | 1e-05 to 1 | – | – | –
30 | O=C1CN(c2cn[nH]c(=O)c2Cl)CCN1Cc1ccc(Cl)cc1F | – | – | 5 to 10 | 5 to 10 | –
